Assays:
[1] = test system: p21^CIP1/WAF1 and p27^KIP1 mRNA; experiment: Quantitative real-time RT-PCR for p21CIP1/WAF1 and p27KIP1 in Hs578T cells; format: cell-based, human; details: normalized to 18S rRNA; vs control, P<0.05
Experimental: Total RNA was extracted and purified with TRIZOL Reagent (GIBCO Invitrogen, Carlsbad, Calif.). The first-strand complementary DNA (cDNA) synthesis was achieved using a commercially available kit (New England BioLabs, Beverly, Mass.) according to the protocol from the manufacturer. Briefly, 1 μg of total RNA was reverse-transcribed using M-MuLV reverse transcriptase (25 U) and dT23VN primer (5 μM) in a final volume of 25 μl.
Quantitative real-time reverse-transcription polymerase chain reaction (RT-PCR) cDNA samples were diluted to appropriate concentrations and used for a real-time RT-PCR assay in a volume of 25 μl, containing 2 μl DNA template, 12.5 μl SYBR® Green PCR Master Mix (Applied Biosystems, Foster City, Calif.) and 0.4 μM each specific primer. The gene expression of p21^CIP1/WAF1 and p27^KIP1 were determined by real-time quantitative RT-PCR and the house-keeping gene 18S ribosomal RNA (rRNA) was used as an internal control to normalize the variable RNA loading in each sample. […] The fluorescence intensity corresponding to the CT was used to quantitate the target cDNA in the mixture of samples with […] dilutions, employing the standard curve for each target gene. Sequence Detector Software (Applied Biosystems) was used to extract the data of the quantitative real-time RT-PCR. […]

[2] = test system: visceral adipocytes from ApoE knockout mice; experiment: Expression of cIAP2, Bcl-2 and Bax in visceral adipocyte cultures; format: cell-based; details: 50 μM fatty acid; vs no additional fatty acid
Experimental: It was hypothesized that stearate induces apoptosis in visceral adipocytes by at least one of the following mechanisms: inhibition of cIAP2, activation of Bcl-2, and activation of BAX. […] Six cultures were exposed to each fatty acid or no fatty acid. The expression of cIAP2, Bcl-2, and Bax was measured in each culture. […] By decreasing levels of the cIAP2 and/or Bcl-2 polypeptides and increasing expression of the Bax polypeptide, stearate administration may lead to an increase in cellular apoptotic activity (such as but not limited to the visceral fat tissues). Without wishing to be bound by any given hypothetical model, it is proposed that this reduction in cIAP2 expression and this increase in Bax expression (independently or in combination) is responsible for the relative decrease in visceral fat tissue that is observed when animals are given a diet that is high in stearate.

## CCCCCCCCCCCCCCCCCC(=O)O [stearate, Stearic acid]
[1]
  p21^CIP1/WAF1 mRNA expression: increased
[2]
  Expression of Bax: increases
  Expression of cIAP2: reduces

From patent US20140357706A1, “Stearate Compounds” (THE UAB RESEARCH FOUNDATION, priority 2011, published 2014)
